Species on record: Rattus norvegicus
Assay: Open TG-GATES - Regimen: Daily Repeat
Format: toxicity, organism-based, Sprague-Dawley
Parameters: regimen Daily Repeat, gender Male, age 6 weeks
Details: in vivo, po, 300 mg/kg, route gavage, dose level High; for APTT / Bas / Eos / Fbg / Hb / Ht / Lym / MCH / MCHC / MCV / Mono / Neu / PT / Plat / RBC / Ret / WBC: tissue Blood; for KIDNEY_L / KIDNEY_R / KIDNEY_TOTAL: tissue Kidney; for LIVER: tissue Liver; for A/G / ALP / ALT / AST / BUN / CRE / Ca / Cl / DBIL / GLC / IP / K / LDH / Na / PL / RALB / TBIL / TC / TG / TP / gamma-GTP: tissue Plasma

Clc1c(Cl)c(Cl)c(Cl)c(Cl)c1Cl [PERCHLOROBENZENE]
TERMINAL_BW (72 h, time 3 day): 226 g
APTT (72 h, time 3 day): 15.9 s
Bas (72 h, time 3 day): 0%
Eos (72 h, time 3 day): 1.2%
Fbg (72 h, time 3 day): 225.4 mg/dL
Hb (72 h, time 3 day): 14.3 g/dL
Ht (72 h, time 3 day): 42.9%
Lym (72 h, time 3 day): 71.2%
MCH (72 h, time 3 day): 21.6 pg
MCHC (72 h, time 3 day): 33.2%
MCV (72 h, time 3 day): 65.2 fL
Mono (72 h, time 3 day): 10.6%
Neu (72 h, time 3 day): 16.8%
PT (72 h, time 3 day): 11 s
Plat (72 h, time 3 day): 98.4 x10_4/uL
RBC (72 h, time 3 day): 658.8 x10_4/ul
Ret (72 h, time 3 day): 8%
WBC (72 h, time 3 day): 106.3 x10_2/uL
KIDNEY_L (72 h, time 3 day): 1 g
KIDNEY_R (72 h, time 3 day): 1 g
KIDNEY_TOTAL (72 h, time 3 day): 2 g
LIVER (72 h, time 3 day): 13.7 g
A/G (72 h, time 3 day): 2.1
ALP (72 h, time 3 day): 720.6 IU/L
ALT (72 h, time 3 day): 41 IU/L
AST (72 h, time 3 day): 64.8 IU/L
BUN (72 h, time 3 day): 15 mg/dL
CRE (72 h, time 3 day): 0.6 mg/dL
Ca (72 h, time 3 day): 10.7 mg/dL
Cl (72 h, time 3 day): 105.8 meq/L
DBIL (72 h, time 3 day): 0.002 mg/dL
GLC (72 h, time 3 day): 184 mg/dL
IP (72 h, time 3 day): 8.3 mg/dL
K (72 h, time 3 day): 5.1 meq/L
LDH (72 h, time 3 day): 186 IU/L
Na (72 h, time 3 day): 138.8 meq/L
PL (72 h, time 3 day): 165.8 mg/dL
RALB (72 h, time 3 day): 3.9 g/dL
TBIL (72 h, time 3 day): 0.5 mg/dL
TC (72 h, time 3 day): 92.2 mg/dL
TG (72 h, time 3 day): 160.4 mg/dL
TP (72 h, time 3 day): 5.7 g/dL
gamma-GTP (72 h, time 3 day): 1.4 IU/L
TERMINAL_BW ([…], time 7 day): 262.7 g
TERMINAL_BW ([…], time 14 day): 310.5 g
TERMINAL_BW ([…], time 28 day): 358.3 g
APTT ([…], time 7 day): 16.1 s
Bas ([…], time 7 day): 0%
Eos ([…], time 7 day): 1%
Fbg ([…], time 7 day): 255.6 mg/dL
Hb ([…], time 7 day): 14.2 g/dL
Ht ([…], time 7 day): 43.1%
Lym ([…], time 7 day): 71.2%
MCH ([…], time 7 day): 21.5 pg
MCHC ([…], time 7 day): 33%
MCV ([…], time 7 day): 65 fL
Mono ([…], time 7 day): 9.4%
Neu ([…], time 7 day): 18.4%
PT ([…], time 7 day): 11.2 s
Plat ([…], time 7 day): 115 x10_4/uL
RBC ([…], time 7 day): 662 x10_4/ul
Ret ([…], time 7 day): 6.3%
WBC ([…], time 7 day): 117.1 x10_2/uL
APTT ([…], time 14 day): 20.8 s
Bas ([…], time 14 day): 0%
Eos ([…], time 14 day): 1.2%
Fbg ([…], time 14 day): 280.2 mg/dL
Hb ([…], time 14 day): 13.9 g/dL
Ht ([…], time 14 day): 41.6%
Lym ([…], time 14 day): 67.8%
MCH ([…], time 14 day): 20.7 pg
MCHC ([…], time 14 day): 33.3%
MCV ([…], time 14 day): 62.1 fL
Mono ([…], time 14 day): 14.8%
Neu ([…], time 14 day): 16.4%
PT ([…], time 14 day): 12.7 s
Plat ([…], time 14 day): 120.7 x10_4/uL
RBC ([…], time 14 day): 669.4 x10_4/ul
Ret ([…], time 14 day): 4.2%
WBC ([…], time 14 day): 140.9 x10_2/uL
APTT ([…], time 28 day): 22.1 s
Bas ([…], time 28 day): 0%
Eos ([…], time 28 day): 1.8%
Fbg ([…], time 28 day): 305.4 mg/dL
Hb ([…], time 28 day): 15.1 g/dL
Ht ([…], time 28 day): 45.5%
Lym ([…], time 28 day): 73.2%
MCH ([…], time 28 day): 19.4 pg
MCHC ([…], time 28 day): 33.2%
MCV ([…], time 28 day): 58.4 fL
Mono ([…], time 28 day): 11.8%
Neu ([…], time 28 day): 13.4%
PT ([…], time 28 day): 14 s
Plat ([…], time 28 day): 92 x10_4/uL
RBC ([…], time 28 day): 779.6 x10_4/ul
Ret ([…], time 28 day): 2.9%
WBC ([…], time 28 day): 161.2 x10_2/uL
KIDNEY_L ([…], time 7 day): 1.2 g
KIDNEY_R ([…], time 7 day): 1.3 g
KIDNEY_TOTAL ([…], time 7 day): 2.5 g
KIDNEY_L ([…], time 14 day): 1.4 g
KIDNEY_R ([…], time 14 day): 1.3 g
KIDNEY_TOTAL ([…], time 14 day): 2.7 g
KIDNEY_L ([…], time 28 day): 1.6 g
KIDNEY_R ([…], time 28 day): 1.6 g
KIDNEY_TOTAL ([…], time 28 day): 3.3 g
LIVER ([…], time 7 day): 18.4 g
LIVER ([…], time 14 day): 24.3 g
LIVER ([…], time 28 day): 31 g
A/G ([…], time 7 day): 2.1
ALP ([…], time 7 day): 604.6 IU/L
ALT ([…], time 7 day): 35.6 IU/L
AST ([…], time 7 day): 55.4 IU/L
BUN ([…], time 7 day): 15.8 mg/dL
CRE ([…], time 7 day): 0.7 mg/dL
Ca ([…], time 7 day): 10.9 mg/dL
Cl ([…], time 7 day): 104.4 meq/L
DBIL ([…], time 7 day): 0.01 mg/dL
GLC ([…], time 7 day): 173.4 mg/dL
IP ([…], time 7 day): 8.9 mg/dL
K ([…], time 7 day): 4.7 meq/L
LDH ([…], time 7 day): 178.4 IU/L
Na ([…], time 7 day): 138.8 meq/L
PL ([…], time 7 day): 205.8 mg/dL
RALB ([…], time 7 day): 4.2 g/dL
TBIL ([…], time 7 day): 0.4 mg/dL
TC ([…], time 7 day): 124.6 mg/dL
TG ([…], time 7 day): 147.2 mg/dL
TP ([…], time 7 day): 6.2 g/dL
gamma-GTP ([…], time 7 day): 2.6 IU/L
A/G ([…], time 14 day): 2
ALP ([…], time 14 day): 379.8 IU/L
ALT ([…], time 14 day): 32.8 IU/L
AST ([…], time 14 day): 51.6 IU/L
BUN ([…], time 14 day): 17.2 mg/dL
CRE ([…], time 14 day): 0.6 mg/dL
Ca ([…], time 14 day): 10.6 mg/dL
Cl ([…], time 14 day): 107.4 meq/L
DBIL ([…], time 14 day): 0.01 mg/dL
GLC ([…], time 14 day): 165.6 mg/dL
IP ([…], time 14 day): 8 mg/dL
K ([…], time 14 day): 4.6 meq/L
LDH ([…], time 14 day): 199.6 IU/L
Na ([…], time 14 day): 140.4 meq/L
PL ([…], time 14 day): 199.6 mg/dL
RALB ([…], time 14 day): 4.4 g/dL
TBIL ([…], time 14 day): 0.4 mg/dL
TC ([…], time 14 day): 124 mg/dL
TG ([…], time 14 day): 144.4 mg/dL
TP ([…], time 14 day): 6.8 g/dL
gamma-GTP ([…], time 14 day): 4 IU/L
A/G ([…], time 28 day): 1.8
ALP ([…], time 28 day): 213.2 IU/L
ALT ([…], time 28 day): 41.6 IU/L
AST ([…], time 28 day): 43.8 IU/L
BUN ([…], time 28 day): 19.2 mg/dL
CRE ([…], time 28 day): 0.7 mg/dL
Ca ([…], time 28 day): 10.8 mg/dL
Cl ([…], time 28 day): 105.4 meq/L
DBIL ([…], time 28 day): 0.038 mg/dL
GLC ([…], time 28 day): 151 mg/dL
IP ([…], time 28 day): 8.4 mg/dL
K ([…], time 28 day): 5 meq/L
LDH ([…], time 28 day): 163.2 IU/L
Na ([…], time 28 day): 143 meq/L
PL ([…], time 28 day): 175 mg/dL
RALB ([…], time 28 day): 4.7 g/dL
TBIL ([…], time 28 day): 0.3 mg/dL
TC ([…], time 28 day): 107.6 mg/dL
TG ([…], time 28 day): 174 mg/dL
TP ([…], time 28 day): 7.3 g/dL
gamma-GTP ([…], time 28 day): 7.8 IU/L

Reference: ChEMBL document CHEMBL3885861, “Open TG-GATES”
